The values below come from the supplement of paper PMC12613149.

Data set [1] is described as follows: collision cross section (TIMS, N2 drift gas) of the primary ion; higher = larger gas-phase ion size.
Data set [2] can be described thus: reversed-phase LC retention time (C18, 15 min MeOH gradient); higher = more hydrophobic / later elution.
[3] abbreviates: ionization mode: ESI+, ion species: [M+H]+.
Setting [4] is: ionization mode: ESI+, ion species: [M]+.
[5] abbreviates: ionization mode: ESI-, ion species: [M-H]-.

As for `CCNc1nc(NC(C)C)nc(SC)n1` [Ametryne], the collision cross section in data set [1] (setting [3]) stood at 155.28 Å². Also, the “reversed-phase LC retention time” value in data set [2] (setting [3]) is 12.8 min.

`CCCCCCCCCCCCCC(=O)NCCC[N+](C)(C)CCCS(=O)(=O)O` [Amidosulfobetaine-14]: the collision cross section in data set [1] (setting [4]) was 217.87 Å². The “reversed-phase LC retention time” value in data set [2] (setting [4]) is 16.9 min.

In the case of `COc1cc(OC)nc(NC(=O)NS(=O)(=O)N(C)S(C)(=O)=O)n1` [Amidosulfuron], the collision cross section in data set [1] (setting [3]) was 175.88 Å²; in data set [1] (setting [5]) it was 179.05 Å². Besides, the “reversed-phase LC retention time” value in data set [2] (setting [3]) is 12.1 min; in data set [2] (setting [5]), 8.09 min.

`NC(N)=NC(=O)c1nc(Cl)c(N)nc1N` [Amiloride]: the collision cross section in data set [1] (setting [3]) is given as 149.53 Å². Also, the “reversed-phase LC retention time” value in data set [2] (setting [3]) was found to be 6.27 min.

Turning to `Nc1ccc(Oc2ccc(Cl)cc2Cl)cc1C(=O)O` [Aminobifenox acid], the collision cross section in data set [1] (setting [3]) amounted to 173.06 Å²; in data set [1] (setting [5]) it was 169.52 Å². Also, the figures for the “reversed-phase LC retention time” value in data set [2] (setting [3]) and in data set [2] (setting [5]) were 15.4 min and 13.2 min, respectively.

In turn, `CCCCc1oc2ccccc2c1C(=O)c1cc(I)c(OCCN(CC)CC)c(I)c1` [Amiodarone] gave a collision cross section in data set [1] (setting [3]) of 228.68 Å². The “reversed-phase LC retention time” value in data set [2] (setting [3]) worked out at 16.5 min.

The compound `CCN1CCCC1CNC(=O)c1cc(S(=O)(=O)CC)c(N)cc1OC` (stereo not given) [Amisulpride] registered a collision cross section in data set [1] (setting [3]) of 193.4 Å². In addition, in data set [2] (setting [3]), the “reversed-phase LC retention time” value is 7.75 min.

Consider `CN(C)CCC=C1c2ccccc2CCc2ccccc21` [Amitriptyline], for which the collision cross section in data set [1] (setting [3]) is 167.84 Å². Moreover, in data set [2] (setting [3]), the “reversed-phase LC retention time” value is 13.1 min.

As for `CC(C)(C#N)c1cc(Cn2cncn2)cc(C(C)(C)C#N)c1` [Anastrozole], in data set [1] (setting [3]), the collision cross section came out at 185.09 Å². The “reversed-phase LC retention time” value in data set [2] (setting [3]) worked out at 11.3 min.

For `O=c1cc(-c2ccc(O)cc2)oc2cc(O[C@@H]3O[C@H](CO)[C@@H](O)[C@H](O)[C@H]3O[C@@H]3OC[C@](O)(CO)[C@H]3O)cc(O)c12` [Apiin], the collision cross section in data set [1] (setting [3]) was 232.7 Å²; in data set [1] (setting [5]), 224.84 Å². The “reversed-phase LC retention time” value in data set [2] (setting [3]) is 10.3 min; in data set [2] (setting [5]), 10.1 min.

In data set [1] (setting [3]), `CC(C)NCC(O)COc1ccc(CC(N)=O)cc1` (stereo not given) [Atenolol] came in with a collision cross section of 157.6 Å². Also, the “reversed-phase LC retention time” value in data set [2] (setting [3]) came to 6.24 min.

On to `CC(C)c1c(C(=O)Nc2ccccc2)c(-c2ccccc2)c(-c2ccc(F)cc2)n1CCC(O)CC(O)CC(=O)O` (stereo not given) [Atorvastatin], for which the collision cross section in data set [1] (setting [3]) is listed as 232.51 Å²; in data set [1] (setting [5]), 228.86 Å². In addition, the “reversed-phase LC retention time” value is 15.1 min in data set [2] (setting [3]) and 14.6 min in data set [2] (setting [5]).

In turn, `CC(C)Nc1nc(N)nc(Cl)n1` [Atrazine desethyl] yielded a collision cross section in data set [1] (setting [3]) of 138.83 Å². In addition, the “reversed-phase LC retention time” value in data set [2] (setting [3]) was determined as 9.74 min.

`CCNc1nc(N)nc(Cl)n1` [Atrazine desisopropyl] yielded a collision cross section in data set [1] (setting [3]) of 132.48 Å². Moreover, in data set [2] (setting [3]), the “reversed-phase LC retention time” value came to 8.1 min.

Compound `CCNc1nc(Cl)nc(NC(C)C)n1` [Atrazine] showed a collision cross section in data set [1] (setting [3]) of 148.84 Å². For the same compound, the “reversed-phase LC retention time” value in data set [2] (setting [3]) is 12.8 min.

On to `O=C(O)CCCCCCCC(=O)O` [Azelaic acid], for which the collision cross section in data set [1] (setting [5]) stood at 138.44 Å². In addition, in data set [2] (setting [5]), the “reversed-phase LC retention time” value turned out to be 0.98 min.

Compound `CN1CCCC(n2nc(Cc3ccc(Cl)cc3)c3ccccc3c2=O)CC1` (stereo not given) [Azelastine] returned a collision cross section in data set [1] (setting [3]) of 189.23 Å². Also, the “reversed-phase LC retention time” value in data set [2] (setting [3]) was determined as 12.7 min.

For `CCC1OC(=O)C(C)C(OC2CC(C)(OC)C(O)C(C)O2)C(C)C(OC2OC(C)CC(N(C)C)C2O)C(C)(O)CC(C)CN(C)C(C)C(O)C1(C)O` (stereo not given) [Azithromycin], the collision cross section in data set [1] (setting [3]) amounted to 264.86 Å². The “reversed-phase LC retention time” value in data set [2] (setting [3]) was 10.9 min.

`c1ccc(/N=N/c2ccccc2)cc1` [Azobenzene]: the collision cross section in data set [1] (setting [3]) is given as 138.4 Å². Also, the “reversed-phase LC retention time” value in data set [2] (setting [3]) came out at 13.1 min.

Turning to `CO/C=C(/C(=O)O)c1ccccc1Oc1cc(Oc2ccccc2C#N)ncn1` [Azoxystrobin acid], the figures for the collision cross section in data set [1] (setting [3]) and in data set [1] (setting [5]) were 190.75 Å² and 188.36 Å², respectively. The results for the “reversed-phase LC retention time” value in data set [2] (setting [3]) and in data set [2] (setting [5]) were 13 min and 11.5 min, respectively.

`COC=C(C(=O)OC)c1ccccc1Oc1cc(Oc2ccccc2C#N)ncn1` [Azoxystrobin] gave a collision cross section in data set [1] (setting [3]) of 196.56 Å². Further, in data set [2] (setting [3]), the “reversed-phase LC retention time” value was found to be 13.8 min.

As for `CCN(CCO)c1ccc(N=Nc2sc3cc(OC)ccc3[n+]2C)cc1` [Basic Blue 41], the collision cross section in data set [1] (setting [4]) is reported as 195.62 Å². Further, the “reversed-phase LC retention time” value in data set [2] (setting [4]) amounted to 12.1 min.

In turn, `CCC(=O)OCC(=O)[C@@]1(OC(=O)CC)[C@@H](C)C[C@H]2[C@@H]3CCC4=CC(=O)C=C[C@]4(C)[C@@]3(Cl)[C@@H](O)C[C@@]21C` [Beclometasone dipropionate] came in with a collision cross section in data set [1] (setting [5]) of 223.83 Å². Moreover, the “reversed-phase LC retention time” value in data set [2] (setting [5]) was determined as 16.5 min.

Turning to `C[C@H]1C[C@H]2[C@@H]3CCC4=CC(=O)C=C[C@]4(C)[C@@]3(Cl)[C@@H](O)C[C@]2(C)[C@@]1(O)C(=O)CO` [Beclomethasone], the collision cross section in data set [1] (setting [3]) is 192.43 Å²; in data set [1] (setting [5]) it was 194.28 Å². In addition, the results for the “reversed-phase LC retention time” value in data set [2] (setting [3]) and in data set [2] (setting [5]) were 13.3 min and 13.6 min, respectively.

Compound `COC(=O)[C@H](C)N(C(=O)Cc1ccccc1)c1c(C)cccc1C` [Benalaxyl] yielded a collision cross section in data set [1] (setting [3]) of 173.08 Å². Besides, the “reversed-phase LC retention time” value in data set [2] (setting [3]) was found to be 15.6 min.

In data set [1] (setting [5]), `CC(C)N1C(=O)c2ccccc2NS1(=O)=O` [Bentazone] yielded a collision cross section of 145.72 Å². Moreover, in data set [2] (setting [5]), the “reversed-phase LC retention time” value came out at 7.56 min.

In data set [1] (setting [5]), `O=S(=O)(O)c1ccccc1` [Benzenesulfonic acid] came in with a collision cross section of 125.05 Å². Also, in data set [2] (setting [5]), the “reversed-phase LC retention time” value came to 2.42 min.

The compound `CC(C)(C)CC(C)(C)c1ccc(OCCOCC[N+](C)(C)Cc2ccccc2)cc1` [Benzethonium] displayed a collision cross section in data set [1] (setting [4]) of 211.12 Å². For the same compound, in data set [2] (setting [4]), the “reversed-phase LC retention time” value is 16.3 min.

In turn, `Nc1ccc(-c2ccc(N)cc2)cc1` [Benzidine] returned a collision cross section in data set [1] (setting [3]) of 155.46 Å². For the same compound, the “reversed-phase LC retention time” value in data set [2] (setting [3]) is 3.98 min.

Regarding `c1ccc2[nH]cnc2c1` [Benzimidazole], the collision cross section in data set [1] (setting [3]) is reported as 119.54 Å². Further, the “reversed-phase LC retention time” value in data set [2] (setting [3]) amounted to 4.16 min.

`COc1ccc(C(=O)c2ccccc2)c(O)c1` [Benzophenone-3] registered a collision cross section in data set [1] (setting [3]) of 148.22 Å². Further, the “reversed-phase LC retention time” value in data set [2] (setting [3]) came to 15.1 min.

Take `COc1cc(O)c(C(=O)c2ccccc2)cc1S(=O)(=O)O` [Benzophenone-4]: in data set [1] (setting [5]), the collision cross section stood at 168.24 Å². Moreover, in data set [2] (setting [5]), the “reversed-phase LC retention time” value came to 9.83 min.

As for `c1ccc2[nH]nnc2c1` [Benzotriazole], the collision cross section in data set [1] (setting [3]) came to 119.49 Å². Further, the “reversed-phase LC retention time” value in data set [2] (setting [3]) worked out at 7.82 min.

The compound `CCCCOC(=O)c1ccccc1C(=O)OCc1ccccc1` [Benzylbutylphthalate] came in with a collision cross section in data set [1] (setting [3]) of 178.47 Å². Besides, the “reversed-phase LC retention time” value in data set [2] (setting [3]) turned out to be 16.3 min.

Take `CCCCCCCCCC[N+](C)(C)Cc1ccccc1` [Benzyldimethyldecylammonium]: in data set [1] (setting [4]), the collision cross section was 183.77 Å². In data set [2] (setting [4]), the “reversed-phase LC retention time” value is 14.7 min.

`CCCCCCCCCCCC[N+](C)(C)Cc1ccccc1` [Benzyldimethyldodecylammonium]: in data set [1] (setting [4]), the collision cross section came out at 196.05 Å². Also, the “reversed-phase LC retention time” value in data set [2] (setting [4]) came out at 16 min.

Turning to `CCCCCCCCCCCCCCCC[N+](C)(C)Cc1ccccc1` [Benzyldimethylhexadecylammonium], the collision cross section in data set [1] (setting [4]) was determined as 213.31 Å². In addition, in data set [2] (setting [4]), the “reversed-phase LC retention time” value came to 17.8 min.

On to `CCCCCCCCCCCCCC[N+](C)(C)Cc1ccccc1` [Benzyldimethyltetradecylammonium], for which the collision cross section in data set [1] (setting [4]) is on record as 204.79 Å². Besides, the “reversed-phase LC retention time” value in data set [2] (setting [4]) turned out to be 17 min.

In turn, `C[N+](C)(C)Cc1ccccc1` [Benzyltrimethylammonium] registered a collision cross section in data set [1] (setting [4]) of 129.9 Å². The “reversed-phase LC retention time” value in data set [2] (setting [4]) was determined as 5.04 min.
